Our source for the Ki values is paper PMC2872082 (Journal of the American Chemical Society, 2010).

The target in the test is T1, MshA (CgMshA) (Corynebacterium glutamicum, UniProt Q8NTA6).
T1 sequence (Q8NTA6 1-418): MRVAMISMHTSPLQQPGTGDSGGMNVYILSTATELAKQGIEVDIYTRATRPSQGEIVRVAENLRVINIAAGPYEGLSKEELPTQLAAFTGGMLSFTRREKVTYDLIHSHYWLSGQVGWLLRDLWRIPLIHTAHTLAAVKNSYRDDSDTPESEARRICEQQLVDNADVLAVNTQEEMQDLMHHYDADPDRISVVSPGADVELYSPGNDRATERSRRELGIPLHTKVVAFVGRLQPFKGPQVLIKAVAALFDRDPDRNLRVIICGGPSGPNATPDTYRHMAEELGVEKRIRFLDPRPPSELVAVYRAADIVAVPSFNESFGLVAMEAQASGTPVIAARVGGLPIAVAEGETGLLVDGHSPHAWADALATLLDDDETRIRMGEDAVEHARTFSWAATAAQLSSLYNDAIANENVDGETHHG
Kind of test: steady-state enzyme inhibition kinetics and slow-binding progress curves. Format: biochemical.

For `CC(=O)N[C@H]1[C@@H](OP(=O)(O)OP(=O)(O)OC[C@H]2O[C@@H](n3ccc(=O)[nH]c3=O)[C@H](O)[C@@H]2O)O[C@](F)(CO)[C@@H](O)[C@@H]1O` [UDP-(5F)-GlcNAc], the Ki turned out to be 1.4 ± 0.2 µM.

By Ki is commonly meant a measure of affinity in units of concentration, obtained from inhibition or displacement. High values mean lower affinity, low ones higher affinity.
